Experimental data taken from article PMC12494099, “Discovery and Characterization of Novel IKZF1/3 Glue Degraders against Multiple Hematological Cancer Cell Lines” (Oncology Research, 2025).
Like-named read-outs stand apart in the source and are kept apart here.

Experiments:
[1] = Pharmacokinetic study in vivo; set-up: species or system BALB/c mice; conditions: mice; for MRT inf: read-out: MRT0-inf
Experimental: BALB/c mice weighing 19–21 g were procured from Beijing Vital River Laboratory Animal Technology Co., Ltd. (Beijing, China). The animals were housed under conditions of constant temperature and humidity, with a 12-h light-dark cycle for lighting. The mice had free access to water and food but were fasted for 12 h before intragastric administration. This study has been approved by the Animal Care and Use Committee Ethics Committee of the National Beijing Center for Drug Safety Evaluation and Research; the approval number is IACUC-DWZX-2024-P557.
Six male BALB/c mice were randomly assigned to two groups, with three mice in each group. MGD-C9 was administered via intravenous (i.v., 2 mg/kg in a solution of 10% DMSO, 2% Tween 80% and 88% H2O) and oral (p.o., 50 mg/kg in the same vehicle) routes to assess its pharmacokinetic (PK) characteristics. Blood samples (0.05 mL) were collected into heparinized tubes at pre-dose and at 0, 0.0833-, 0.25-, 0.5-, 1-, 2-, 4-, 6-, 8-, and 24 h post-administration. Plasma samples were obtained by centrifuging the blood for 10 min.
The plasma supernatant was then stored at −80°C and thawed at room temperature for subsequent analysis. For preparation, 10 μL of plasma was mixed with 10 μL working solution, followed by protein precipitation with 50 μL acetonitrile containing propranolol hydrochloride internal standard (50 ng/mL). After vortexing (1 min) and centrifugation (18,800× g, 10 min, 4°C), the supernatant was collected, diluted two-fold with 50% acetonitrile/water (v/v), and mixed. MGD-C9 plasma concentrations were quantified by LC-MS/MS using Analyst 1.5.1 (Applied Biosystem, Shanghai, China).
Automated peak integration was performed for atlas samples. The peak area ratio (sample/internal standard) was used for concentration regression analysis, applying linear regression with 1/X^2 weighting. Pharmacokinetic parameters (AUC, t1/2, MRT) across administration routes, and Cmax/Tmax after oral dosing, were calculated via non-compartmental analysis using WinNonlin v6.3 (Pharsight, Lawrenceville, GA, USA).
Experimental data were presented as “Mean ± SD” (n = 3).

SALL4 = target: T1, SALL4 (Homo sapiens, UniProt Q9UJQ4); test: MS-based quantitative proteomics in NCI-H929 cells; assay type: cell-based; conditions: NCI-H929, 10 µM
T1 construct: endogenous in cells; host or cells: NCI-H929
Experimental: (§1) NCI-H929 cells were treated with either 10 μM DMSO or 10 μM MGD-C9 for 4 h. Post-treatment, the cells were washed with PBS (pH = 7.2–7.4, 1×) and then lysed in 8M Urea (UA) (comprising 8M urea, 100 mM Tris-HCl, pH = 8.0). Subsequently, the cell lysate was subjected to centrifugation on a high-speed freezing microcentrifuge (#CF1524R; SCILOGEX, Meriden, CT, USA) at […], and the supernatant was collected. Subsequently, the collected supernatant was treated with 10 mM tris (2-carboxyethyl) phosphine hydrochloride (TCEP) to reduce it for 30 min. Following this, cysteine alkylation was performed using 50 mM 2-chloroacetamide (CAA) for an additional 30 min. The denatured proteins were then digested with trypsin (1 μg/μL) at an enzyme-to-protein ratio of 1:50 and incubated at 37°C overnight. The reaction was stopped by adding 0.1% formic acid (FA). The samples were desalted using 100 μL pipette tips packed with C18 discs (3M, Saint Paul, MN, USA). Prior to sample loading, the tips were conditioned sequentially with 80 μL of acetonitrile (ACN), followed by 80 μL of a 1:1 (v/v) mixture of H2O and ACN, and finally with 80 μL of H2O. The conditioned tips were loaded with peptides. Then, they were washed twice with 80 μL of H2O. After that, the peptides were eluted twice using 80 μL of a solution composed of 50% water and 50% acetonitrile (ACN). The resulting eluates were vacuum-dried and then reconstituted in 0.1% formic acid for the subsequent LC-MS/MS analysis.
(§2) The peptide mixtures were analyzed using an EASY-nLC 1200 liquid chromatography system (Thermo Fisher Scientific, WLM, MA, USA) equipped with a custom-made 15 cm C18 column (150 μm ID, 1.9 μm particle size, 100 Å pore size). Peptide separation was performed over a 75-min gradient at a constant flow rate of 600 nL/min. The gradient profile was as follows: 4%–7% buffer B (1 min), 7%–13% buffer B (6 min), 13%–25% buffer B (38 min), 25%–45% buffer B (22 min), 45%–95% buffer B (1 min), followed 95% buffer B (7-min). The buffers used were Buffer A (0.1% formic acid) and Buffer B (0.1% formic acid in 80% acetonitrile). The peptide mixtures were then analyzed using a Q Exactive HF mass spectrometer (Thermo Fisher Scientific). MS data were acquired in data-dependent acquisition (DDA) mode with a dynamic exclusion duration of 15 s. MS1 scans were acquired in positive-ion mode across a mass-to-charge (m/z) range of 300–1400, with a resolution of 120,000 (at m/z 200) and a maximum injection time of 50 ms. Precursor ions were fragmented using higher-energy collision dissociation (HCD) at 27% normalized collision energy. MS2 spectra were collected with an AGC target of 5.0 × 10^4 and a maximum injection time of 20 ms.
(§3) Label-free MS raw data were processed using MaxQuant (v2.4) against the UniProt Human database (https://www.uniprot.org/, downloaded May 2024; 20,434 entries). A strict false discovery rate (FDR) threshold of ≤0.01 was applied at the spectra, protein, and modification levels. Contaminants and reverse database hits were excluded. Default settings were used for all other parameters. Protein groups output by MaxQuant were further analyzed in R (v4.2.1). Student’s t-test, and p-values < 0.01 were considered statistically significant for statistical analyses and a volcano plot was generated with GraphPad Prism 8.0.

GSPT1 = target: T2, GSPT1 (Homo sapiens, UniProt P15170); test: MS-based quantitative proteomics in NCI-H929 cells; assay type: cell-based; conditions: NCI-H929, 10 μM, 4 h; not notably downregulated
T2 construct: endogenous in cells; host or cells: NCI-H929
Experimental: as §1, §2, §3

IKZF5 = target: T3, IKZF5 (Homo sapiens, UniProt Q9H5V7); test: MS-based quantitative proteomics in NCI-H929 cells; assay type: cell-based; conditions: NCI-H929, 10 μM, 4 h; not notably downregulated
T3 construct: endogenous in cells; host or cells: NCI-H929
Experimental: as §1, §2, §3

IKZF4 = target: T4, IKZF4 (Homo sapiens, UniProt Q9H2S9); test: MS-based quantitative proteomics in NCI-H929 cells; assay type: cell-based; conditions: NCI-H929, 10 μM, 4 h; not notably downregulated
T4 construct: endogenous in cells; host or cells: NCI-H929
Experimental: as §1, §2, §3

IKZF3 = target: T5, IKZF3 (Homo sapiens, UniProt Q96SW2+Q9UKT9); test: MS-based quantitative proteomics in NCI-H929 cells; assay type: cell-based; conditions: NCI-H929, 10 μM, 4 h
T5 construct: endogenous in cells; host or cells: NCI-H929
Experimental: as §1, §2, §3

IKZF1 = target: T6, IKZF1 (Homo sapiens, UniProt Q13422+Q96SW2); test: MS-based quantitative proteomics in NCI-H929 cells; assay type: cell-based; conditions: NCI-H929, 10 μM, 4 h
T6 construct: endogenous in cells; host or cells: NCI-H929
Experimental: as §1, §2, §3

[2] = male, BALB/c, mouse, plasma, iv, 2 mg/kg
[3] = male, BALB/c, mouse, plasma, po, 50 mg/kg

T1 sequence (Q96SW2 whole entry partner): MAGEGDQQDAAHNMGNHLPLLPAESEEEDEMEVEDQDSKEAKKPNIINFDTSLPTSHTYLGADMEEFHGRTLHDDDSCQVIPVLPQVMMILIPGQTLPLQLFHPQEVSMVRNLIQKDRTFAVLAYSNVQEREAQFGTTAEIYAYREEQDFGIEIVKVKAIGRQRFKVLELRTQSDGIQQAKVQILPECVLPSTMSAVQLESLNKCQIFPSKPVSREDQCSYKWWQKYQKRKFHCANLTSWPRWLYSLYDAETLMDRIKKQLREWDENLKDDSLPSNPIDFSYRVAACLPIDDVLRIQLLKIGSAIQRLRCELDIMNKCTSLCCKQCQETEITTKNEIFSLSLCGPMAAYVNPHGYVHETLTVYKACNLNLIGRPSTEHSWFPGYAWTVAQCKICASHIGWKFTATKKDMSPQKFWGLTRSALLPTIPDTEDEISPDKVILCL
T1 sequence (Q16531 whole entry partner): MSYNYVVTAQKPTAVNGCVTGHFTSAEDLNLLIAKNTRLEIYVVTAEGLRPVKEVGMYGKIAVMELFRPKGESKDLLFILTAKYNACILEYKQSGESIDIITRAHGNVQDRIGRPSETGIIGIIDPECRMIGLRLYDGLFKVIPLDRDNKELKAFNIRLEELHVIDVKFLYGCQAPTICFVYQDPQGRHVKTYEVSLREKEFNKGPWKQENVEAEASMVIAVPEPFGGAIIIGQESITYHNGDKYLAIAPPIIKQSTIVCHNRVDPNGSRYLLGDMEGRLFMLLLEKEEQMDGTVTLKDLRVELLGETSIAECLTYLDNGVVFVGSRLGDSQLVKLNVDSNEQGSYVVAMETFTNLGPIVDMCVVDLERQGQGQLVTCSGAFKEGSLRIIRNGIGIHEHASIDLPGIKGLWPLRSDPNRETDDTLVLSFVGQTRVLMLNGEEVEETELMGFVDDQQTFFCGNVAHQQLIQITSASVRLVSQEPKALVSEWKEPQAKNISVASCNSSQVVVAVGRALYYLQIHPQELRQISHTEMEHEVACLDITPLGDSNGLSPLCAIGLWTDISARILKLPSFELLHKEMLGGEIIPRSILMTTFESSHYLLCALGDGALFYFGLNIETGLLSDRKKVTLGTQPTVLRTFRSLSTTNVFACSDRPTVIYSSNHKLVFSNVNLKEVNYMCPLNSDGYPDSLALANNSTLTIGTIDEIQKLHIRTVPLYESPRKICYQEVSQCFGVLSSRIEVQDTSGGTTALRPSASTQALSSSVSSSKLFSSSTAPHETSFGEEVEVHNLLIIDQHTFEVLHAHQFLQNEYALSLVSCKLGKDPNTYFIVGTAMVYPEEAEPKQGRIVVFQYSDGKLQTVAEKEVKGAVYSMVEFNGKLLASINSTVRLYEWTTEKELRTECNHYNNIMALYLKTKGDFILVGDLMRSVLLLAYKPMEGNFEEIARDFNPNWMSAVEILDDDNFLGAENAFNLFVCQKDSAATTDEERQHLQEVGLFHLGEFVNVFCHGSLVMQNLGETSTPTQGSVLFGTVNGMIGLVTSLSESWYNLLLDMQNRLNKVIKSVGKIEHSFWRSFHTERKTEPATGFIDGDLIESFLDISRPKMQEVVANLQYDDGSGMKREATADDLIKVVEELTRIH
T1 sequence (Q9UJQ4 whole entry): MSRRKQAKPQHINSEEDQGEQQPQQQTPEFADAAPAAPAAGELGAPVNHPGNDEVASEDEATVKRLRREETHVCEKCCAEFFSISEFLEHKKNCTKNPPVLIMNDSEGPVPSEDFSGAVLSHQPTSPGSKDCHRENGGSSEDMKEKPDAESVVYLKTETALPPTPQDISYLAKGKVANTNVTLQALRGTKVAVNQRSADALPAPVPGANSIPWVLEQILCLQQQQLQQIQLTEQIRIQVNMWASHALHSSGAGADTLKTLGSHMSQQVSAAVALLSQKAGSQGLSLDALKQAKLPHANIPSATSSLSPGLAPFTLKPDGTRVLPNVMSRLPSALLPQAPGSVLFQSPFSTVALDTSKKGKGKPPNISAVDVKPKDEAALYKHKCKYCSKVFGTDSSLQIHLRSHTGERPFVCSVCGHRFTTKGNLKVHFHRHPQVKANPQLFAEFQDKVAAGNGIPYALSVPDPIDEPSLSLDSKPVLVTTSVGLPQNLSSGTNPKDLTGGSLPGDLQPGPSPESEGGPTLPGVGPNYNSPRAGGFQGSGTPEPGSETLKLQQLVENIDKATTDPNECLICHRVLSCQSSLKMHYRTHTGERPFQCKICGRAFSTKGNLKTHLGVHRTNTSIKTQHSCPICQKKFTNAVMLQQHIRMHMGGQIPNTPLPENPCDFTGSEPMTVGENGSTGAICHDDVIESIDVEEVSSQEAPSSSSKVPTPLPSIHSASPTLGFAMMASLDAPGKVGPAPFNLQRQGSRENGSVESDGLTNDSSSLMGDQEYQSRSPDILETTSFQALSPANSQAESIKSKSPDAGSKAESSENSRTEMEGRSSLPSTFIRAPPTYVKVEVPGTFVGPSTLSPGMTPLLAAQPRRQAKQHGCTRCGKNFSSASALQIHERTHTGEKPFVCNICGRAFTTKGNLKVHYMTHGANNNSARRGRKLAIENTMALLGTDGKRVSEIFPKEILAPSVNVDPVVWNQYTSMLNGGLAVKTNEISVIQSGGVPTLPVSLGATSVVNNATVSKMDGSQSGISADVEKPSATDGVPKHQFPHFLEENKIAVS
T2 sequence (Q96SW2 whole entry partner): as the sequence (Q96SW2 whole entry partner) above
T2 sequence (Q16531 whole entry partner): as the sequence (Q16531 whole entry partner) above
T2 sequence (P15170 whole entry): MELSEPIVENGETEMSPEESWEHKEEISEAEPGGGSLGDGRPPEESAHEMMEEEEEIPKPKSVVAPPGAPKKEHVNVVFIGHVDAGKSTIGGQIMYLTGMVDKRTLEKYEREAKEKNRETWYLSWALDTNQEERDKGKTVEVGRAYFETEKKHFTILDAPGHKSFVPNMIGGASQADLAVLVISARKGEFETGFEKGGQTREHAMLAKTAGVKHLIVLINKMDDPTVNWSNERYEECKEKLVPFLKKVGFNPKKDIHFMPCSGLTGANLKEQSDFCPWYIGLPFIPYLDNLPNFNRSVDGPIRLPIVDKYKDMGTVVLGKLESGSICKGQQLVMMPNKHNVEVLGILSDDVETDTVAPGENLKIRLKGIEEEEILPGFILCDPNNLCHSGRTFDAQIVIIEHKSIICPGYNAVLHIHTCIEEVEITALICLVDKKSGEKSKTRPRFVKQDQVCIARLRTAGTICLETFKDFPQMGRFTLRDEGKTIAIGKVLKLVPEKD
T4 sequence (Q96SW2 whole entry partner): as the sequence (Q96SW2 whole entry partner) above
T4 sequence (Q16531 whole entry partner): as the sequence (Q16531 whole entry partner) above
T4 sequence (Q9H2S9 whole entry): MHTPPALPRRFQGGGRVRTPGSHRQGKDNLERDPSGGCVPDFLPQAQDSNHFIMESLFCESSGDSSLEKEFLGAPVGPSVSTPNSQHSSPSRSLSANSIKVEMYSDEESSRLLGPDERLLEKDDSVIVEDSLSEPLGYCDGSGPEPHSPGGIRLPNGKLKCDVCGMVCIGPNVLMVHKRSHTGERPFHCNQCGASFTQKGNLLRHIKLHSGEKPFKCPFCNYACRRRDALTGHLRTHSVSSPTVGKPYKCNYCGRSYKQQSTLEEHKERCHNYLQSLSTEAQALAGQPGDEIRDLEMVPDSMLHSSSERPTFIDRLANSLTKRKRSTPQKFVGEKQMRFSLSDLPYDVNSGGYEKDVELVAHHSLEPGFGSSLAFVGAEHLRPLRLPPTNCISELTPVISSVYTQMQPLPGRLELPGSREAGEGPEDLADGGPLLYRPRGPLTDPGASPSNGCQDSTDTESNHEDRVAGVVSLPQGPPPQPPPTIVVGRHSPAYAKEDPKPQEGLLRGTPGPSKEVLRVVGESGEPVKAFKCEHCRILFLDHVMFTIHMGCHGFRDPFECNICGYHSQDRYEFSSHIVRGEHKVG
T3 sequence (Q96SW2 whole entry partner): as the sequence (Q96SW2 whole entry partner) above
T3 sequence (Q16531 whole entry partner): as the sequence (Q16531 whole entry partner) above
T3 sequence (Q9H5V7 whole entry): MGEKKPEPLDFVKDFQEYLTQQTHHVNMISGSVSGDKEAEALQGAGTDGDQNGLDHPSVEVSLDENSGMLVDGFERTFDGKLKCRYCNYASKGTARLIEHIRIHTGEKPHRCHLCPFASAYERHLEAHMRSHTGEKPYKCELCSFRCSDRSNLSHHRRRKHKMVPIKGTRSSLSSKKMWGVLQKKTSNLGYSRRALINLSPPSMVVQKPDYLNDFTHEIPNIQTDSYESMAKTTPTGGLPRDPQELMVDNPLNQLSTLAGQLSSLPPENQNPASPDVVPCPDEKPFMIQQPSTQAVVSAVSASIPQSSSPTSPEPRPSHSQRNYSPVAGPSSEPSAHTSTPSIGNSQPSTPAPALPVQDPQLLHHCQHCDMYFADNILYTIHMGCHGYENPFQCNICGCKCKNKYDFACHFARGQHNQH
T6 sequence (Q13422 whole entry): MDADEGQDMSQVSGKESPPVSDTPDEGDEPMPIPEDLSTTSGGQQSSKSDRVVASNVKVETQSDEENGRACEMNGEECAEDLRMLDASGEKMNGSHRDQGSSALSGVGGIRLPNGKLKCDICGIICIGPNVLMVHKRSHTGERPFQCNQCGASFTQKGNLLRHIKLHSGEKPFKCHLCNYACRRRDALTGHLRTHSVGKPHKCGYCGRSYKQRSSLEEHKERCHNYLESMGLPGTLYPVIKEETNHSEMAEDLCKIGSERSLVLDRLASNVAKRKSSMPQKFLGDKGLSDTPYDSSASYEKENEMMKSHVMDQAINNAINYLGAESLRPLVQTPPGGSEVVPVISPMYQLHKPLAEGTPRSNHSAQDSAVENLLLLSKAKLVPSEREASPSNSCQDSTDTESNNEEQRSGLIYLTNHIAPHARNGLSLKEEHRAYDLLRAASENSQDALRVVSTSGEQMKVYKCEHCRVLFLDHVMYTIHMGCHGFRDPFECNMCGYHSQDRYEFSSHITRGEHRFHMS
T6 sequence (Q96SW2 whole entry): as the sequence (Q96SW2 whole entry partner) above
T6 sequence (Q16531 whole entry partner): as the sequence (Q16531 whole entry partner) above

Question: What does the source list for `CN1CCN(Cc2cccc(C(=O)NC3CCC(=O)NC3=O)c2F)C(=O)C1` (stereo not drawn) [MGD-C9, N-(2,6-dioxopiperidin-3-yl)-2-fluoro-3-((4-methyl-2-oxopiperazin-1-yl)methyl)benzamide]?
Answer: AUC(0-inf) [1, 2]: 1360 ± 190 ng·h/mL; Cmax [1, 2]: 3690 ± 713 ng/mL; half-life [1, 2]: 12 ± 4.2 min; MRT inf ([1]; male, BALB/c, mouse, plasma, iv, i.v., 2 mg/kg): 15.6 ± 7.2 min; Vd ([1]; male, BALB/c, mouse, plasma, iv, i.v., 2 mg/kg, read-out: Vz): 0.42 ± 0.14 L/kg; bioavailability ([1]; male, BALB/c, mouse, plasma, oral, p.o. 50 mg/kg vs i.v. 2 mg/kg, read-out: F (oral bioavailability)): 33.5%; Tmax [1, 3]: ~30 min; AUC(0-inf) [1, 3]: 11400 ± 553 ng·h/mL; Cmax [1, 3]: 5590 ± 222 ng/mL; half-life [1, 3]: 53.4 ± 13.8 min; MRT inf ([1]; male, BALB/c, mouse, plasma, po, p.o., 50 mg/kg): 90.6 ± 10.2 min; Vz ([1]; p.o., 50 mg/kg): 5.62 ± 1.23 L/kg; SALL4 level (proteomics) (SALL4): remained unaffected; absolute [log2(fold change)] of GSPT1 (GSPT1): less than 1; absolute [log2(fold change)] of IKZF5 (IKZF5): less than 1; absolute [log2(fold change)] of IKZF4 (IKZF4): less than 1; reduction of IKZF3 (proteomics) (IKZF3): ~80.2%; reduction of IKZF1 (proteomics) (IKZF1): approximately 75.1%
